Drawing on patent publication US20220281821A1, “INDAZOLE COMPOUNDS AND THEIR PHARMACEUTICAL COMPOSITIONS” (Jinan University, priority 2019, published 2022), this text covers IC50 for ten compounds.

The IC50 is the concentration that inhibits the measured activity by half. Read a low IC50 as greater potency in that assay.

One test has as its target T1, TRKB (Homo sapiens, UniProt Q16620).
T1 construct: purchased life technologies PV3616
The experiment in a line: Z′-LYTE kinase activity assay, TRKB. Type of test: biochemical. The conditions noted are these: ATP 25 uM. From the text: (§1) Kinase activity assay: Z′-LYTE™ technology (detection by fluorescence, enzyme-conjugated format, based on the difference in sensitivity of phosphorylated and non-phosphorylated peptides to proteolytic cleavage) was applied, and using the principle of fluorescence resonance energy transfer (FRET), a Z′-LYTE™ FRET peptide substrate (Z′-LYTE™ Tyrosine 1 Peptide Substrate, Invitrogen, PV3190), and a secondary reaction were used to detect the inhibitory activity of the compounds on TRKs (TRK1, TRK2, TRK3) (life technologies, PV3144, PV3616, PV3617).
(§2) Enzymatic reaction: In a 384-well plate, 5 μL of an enzyme-substrate system (50 mM HEPES pH 7.5, 0.01% BRIJ-35, 10 mM MgCl2, 1 mM EGTA, 2 μM Tyr 01 Peptide Substrate) was added and 5 nL of compound (concentration gradient) was transferred thereto by using the echo520 ultramicro liquid pipetting system. […] After shaking and mixing, centrifuging was performed. A reaction was carried out at 30° C. in the dark for 1.5 hours.
(§3) The data were analyzed as follows:
(§4) Phosphorylation ratio=1−{(emission ratio×F100%−C100%)/[C0%−C100%+emission ratio×(F100%−F0%)]}×100;
(§5) Inhibition rate=100×(1−compound phosphorylation ratio/negative control phosphorylation ratio).
(§6) IC50 values were calculated by using GraphPad Prism 5.0 software.

For a further test, the target named is T2, TRKA (Homo sapiens, UniProt P04629).
T2 construct: purchased life technologies PV3144
Kind of test: Z′-LYTE kinase activity assay, TRKA. Type of test: biochemical. The following applies: ATP 400 uM.
Text: as §1, §2, §3, §4, §5, §6

The target of a further test is T3, BaF3-ETV6-NTRK3 (Homo sapiens, UniProt Q16288).
T3 construct: fused on or other part: P41212 (Transcription factor ETV6)
The experiment in a line: Cell proliferation inhibition (CCK-8), BaF3-ETV6-NTRK3 stable strain. Format: cell-based, mouse. The following applies: BaF3-ETV6-NTRK3, 72 hours. A digest of the protocol:
(§7)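 Ba/F3 cells stably electroporated with ETV6-NTRK3, CD74-NTRK1 or ETV6-NTRK2, selected with G418 and grown without IL3, then cloned by limiting dilution.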

The target in the next test is T4, BaF3-ETV6-NTRK2 (Homo sapiens, UniProt Q16620).
T4 construct: fused on or other part: P41212 (Transcription factor ETV6)
The experiment in a line: Cell proliferation inhibition (CCK-8), BaF3-ETV6-NTRK2 stable strain. Type of test: cell-based, mouse. The conditions noted are these: BaF3-ETV6-NTRK2, 72 hours. A digest of the protocol: as §7

A further test concerns the target T5, BaF3-CD74-NTRK1 (Homo sapiens, UniProt P04629).
T5 construct: fused on or other part: P04233 (HLA class II histocompatibility antigen gamma chain)
Kind of test: Cell proliferation inhibition (CCK-8), BaF3-CD74-NTRK1 stable strain. Format: cell-based, mouse. The conditions noted are these: BaF3-CD74-NTRK1, 72 hours. A digest of the protocol:
as §7

The target of the next test is T6, TRKC (Homo sapiens, UniProt Q16288).
T6 construct: purchased life technologies PV3617
Kind of test: Z′-LYTE kinase activity assay, TRKC. Format: biochemical. The conditions noted are these: ATP 50 uM.
Text: as §1, §2, §3, §6

T6 sequence (Q16288 32-839): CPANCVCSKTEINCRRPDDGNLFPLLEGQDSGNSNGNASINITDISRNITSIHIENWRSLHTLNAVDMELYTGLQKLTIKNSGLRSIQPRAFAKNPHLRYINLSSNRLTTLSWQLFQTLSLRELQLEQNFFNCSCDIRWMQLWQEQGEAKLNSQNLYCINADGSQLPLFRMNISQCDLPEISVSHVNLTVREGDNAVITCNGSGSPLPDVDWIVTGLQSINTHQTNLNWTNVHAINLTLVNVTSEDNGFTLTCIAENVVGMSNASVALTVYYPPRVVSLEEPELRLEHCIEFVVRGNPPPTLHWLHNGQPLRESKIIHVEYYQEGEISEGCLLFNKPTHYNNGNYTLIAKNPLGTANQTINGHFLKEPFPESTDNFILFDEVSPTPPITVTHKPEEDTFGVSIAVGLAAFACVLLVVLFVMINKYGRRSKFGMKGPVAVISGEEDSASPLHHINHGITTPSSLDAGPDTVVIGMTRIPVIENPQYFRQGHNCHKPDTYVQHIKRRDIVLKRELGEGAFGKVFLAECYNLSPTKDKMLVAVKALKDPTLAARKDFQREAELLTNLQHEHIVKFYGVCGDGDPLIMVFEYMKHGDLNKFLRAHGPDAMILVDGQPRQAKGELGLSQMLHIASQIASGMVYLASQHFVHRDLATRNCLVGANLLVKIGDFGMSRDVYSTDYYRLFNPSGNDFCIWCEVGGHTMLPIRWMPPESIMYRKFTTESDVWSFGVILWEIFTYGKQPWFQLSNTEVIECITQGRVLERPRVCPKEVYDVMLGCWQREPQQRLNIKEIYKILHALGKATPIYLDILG
T3 sequence (Q16288 whole entry, the tested form may be a part): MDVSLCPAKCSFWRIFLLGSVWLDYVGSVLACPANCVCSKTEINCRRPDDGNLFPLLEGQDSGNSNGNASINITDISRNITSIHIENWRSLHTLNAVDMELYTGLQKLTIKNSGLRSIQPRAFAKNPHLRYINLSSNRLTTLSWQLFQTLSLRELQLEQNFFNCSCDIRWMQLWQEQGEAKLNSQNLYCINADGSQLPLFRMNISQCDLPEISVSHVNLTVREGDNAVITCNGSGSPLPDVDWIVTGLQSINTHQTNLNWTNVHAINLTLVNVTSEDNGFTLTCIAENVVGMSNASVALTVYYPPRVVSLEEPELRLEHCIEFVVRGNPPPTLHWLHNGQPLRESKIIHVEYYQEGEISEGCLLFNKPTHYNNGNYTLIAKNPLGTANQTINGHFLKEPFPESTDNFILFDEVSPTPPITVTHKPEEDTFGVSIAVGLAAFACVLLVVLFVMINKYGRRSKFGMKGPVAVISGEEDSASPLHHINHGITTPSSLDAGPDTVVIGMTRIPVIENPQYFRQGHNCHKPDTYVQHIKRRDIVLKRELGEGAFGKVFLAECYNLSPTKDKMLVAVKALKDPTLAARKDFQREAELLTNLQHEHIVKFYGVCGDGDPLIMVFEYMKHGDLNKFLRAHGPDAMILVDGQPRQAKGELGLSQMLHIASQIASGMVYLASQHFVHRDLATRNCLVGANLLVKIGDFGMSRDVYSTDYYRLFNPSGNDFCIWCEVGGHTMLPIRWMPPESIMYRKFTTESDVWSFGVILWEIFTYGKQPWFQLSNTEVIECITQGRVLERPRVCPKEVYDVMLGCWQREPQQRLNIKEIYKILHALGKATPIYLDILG
T1 sequence (Q16620 32-822): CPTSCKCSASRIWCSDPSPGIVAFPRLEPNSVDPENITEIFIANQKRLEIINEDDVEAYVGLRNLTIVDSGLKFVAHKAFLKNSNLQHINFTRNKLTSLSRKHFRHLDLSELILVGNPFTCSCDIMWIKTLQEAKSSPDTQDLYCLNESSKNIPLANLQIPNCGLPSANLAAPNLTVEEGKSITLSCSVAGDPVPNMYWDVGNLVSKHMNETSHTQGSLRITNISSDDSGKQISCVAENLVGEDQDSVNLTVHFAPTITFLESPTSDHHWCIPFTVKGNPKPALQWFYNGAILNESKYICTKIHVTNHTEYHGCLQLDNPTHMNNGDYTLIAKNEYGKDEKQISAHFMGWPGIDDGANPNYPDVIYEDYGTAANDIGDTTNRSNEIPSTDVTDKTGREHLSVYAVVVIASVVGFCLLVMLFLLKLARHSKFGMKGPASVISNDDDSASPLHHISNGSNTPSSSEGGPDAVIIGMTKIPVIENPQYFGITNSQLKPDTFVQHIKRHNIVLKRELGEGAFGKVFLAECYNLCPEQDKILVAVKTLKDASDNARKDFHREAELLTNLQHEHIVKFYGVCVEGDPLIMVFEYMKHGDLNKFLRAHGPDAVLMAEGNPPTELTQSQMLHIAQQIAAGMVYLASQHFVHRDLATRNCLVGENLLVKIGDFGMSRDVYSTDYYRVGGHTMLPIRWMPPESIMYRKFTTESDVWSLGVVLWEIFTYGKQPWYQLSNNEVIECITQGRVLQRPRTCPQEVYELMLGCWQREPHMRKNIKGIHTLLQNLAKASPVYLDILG
T4 sequence (Q16620 538-822 limits assumed): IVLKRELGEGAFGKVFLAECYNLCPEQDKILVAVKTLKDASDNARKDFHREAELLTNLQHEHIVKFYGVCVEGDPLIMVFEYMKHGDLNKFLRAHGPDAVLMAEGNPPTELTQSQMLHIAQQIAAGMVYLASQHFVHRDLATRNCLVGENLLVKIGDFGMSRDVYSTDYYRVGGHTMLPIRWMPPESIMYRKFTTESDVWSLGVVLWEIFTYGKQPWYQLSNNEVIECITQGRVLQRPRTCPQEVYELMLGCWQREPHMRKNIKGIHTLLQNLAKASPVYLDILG
T2 sequence (P04629 440-796 limits assumed): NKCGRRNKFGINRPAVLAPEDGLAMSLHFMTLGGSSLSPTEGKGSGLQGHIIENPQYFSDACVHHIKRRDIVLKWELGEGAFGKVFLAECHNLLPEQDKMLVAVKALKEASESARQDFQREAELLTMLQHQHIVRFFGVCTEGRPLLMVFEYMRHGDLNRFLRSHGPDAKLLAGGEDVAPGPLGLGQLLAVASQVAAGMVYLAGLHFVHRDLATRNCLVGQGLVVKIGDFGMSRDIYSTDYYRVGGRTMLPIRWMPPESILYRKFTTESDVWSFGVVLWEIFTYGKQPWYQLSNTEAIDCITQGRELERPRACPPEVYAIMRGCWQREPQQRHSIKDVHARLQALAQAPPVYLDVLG
T5 sequence (P04629 510-796 limits assumed): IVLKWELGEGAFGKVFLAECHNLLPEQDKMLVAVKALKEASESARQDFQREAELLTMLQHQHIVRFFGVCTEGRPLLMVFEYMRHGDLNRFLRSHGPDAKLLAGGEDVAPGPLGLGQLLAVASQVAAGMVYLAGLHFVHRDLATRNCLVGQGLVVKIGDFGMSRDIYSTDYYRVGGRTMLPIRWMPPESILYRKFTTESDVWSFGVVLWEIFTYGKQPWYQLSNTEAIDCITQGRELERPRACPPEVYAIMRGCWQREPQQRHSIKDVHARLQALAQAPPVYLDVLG

Turning to `Fc1ccc(Cc2ccc3[nH]nc(/C=C/c4ccccn4)c3c2)cc1F` [DYX-059, (E)-5-(3,4-difluorobenzyl)-3-(2-(pyridin-2-yl)vinyl)-1H-indazole], the IC50 was more than 1000 nM against TRKB; 250 nM on TRKA; 3250 nM against BaF3-ETV6-NTRK3; 8820 nM on BaF3-ETV6-NTRK2; 7940 nM against BaF3-CD74-NTRK1; 160 nM against TRKC.
Turning to `Fc1ccc(Cc2ccc3[nH]nc(/C=C/c4ccccn4)c3c2)c(F)c1` [DYX-060, (E)-5-(2,4-difluorobenzyl)-3-(2-(pyridin-2-yl)vinyl)-1H-indazole], the IC50 is 375 nM against TRKB; 818 nM at TRKA; more than 10000 nM against BaF3-ETV6-NTRK3; more than 10000 nM against BaF3-ETV6-NTRK2; more than 10000 nM against BaF3-CD74-NTRK1; 620 nM against TRKC.
For `Fc1cccc(F)c1Cc1ccc2[nH]nc(C#Cc3ccccn3)c2c1` [DYX-071, 5-(2,6-difluorobenzyl)-3-(pyridin-2-ylethynyl)-1H-indazole], the IC50 was 385 nM against TRKB; 217 nM on TRKA; 2740 nM against BaF3-ETV6-NTRK3; 2890 nM on BaF3-ETV6-NTRK2; 7730 nM against BaF3-CD74-NTRK1; 113 nM at TRKC.
`Fc1cccc(Cc2ccc3[nH]nc(C#Cc4ccccn4)c3c2)c1F` [DYX-074, 5-(2,3-difluorobenzyl)-3-(pyridin-2-ylethynyl)-1H-indazole]: the IC50 against TRKB is 435 nM; on TRKA, 72 nM; on BaF3-ETV6-NTRK3 it was 2200 nM; against BaF3-ETV6-NTRK2, 2830 nM; at BaF3-CD74-NTRK1, 2500 nM; against TRKC, 41 nM.
Consider `Fc1cc(Cc2ccc3[nH]nc(C#Cc4ccccn4)c3c2)cc(F)c1F` [DYX-075, 3-(pyridin-2-ylethynyl)-5-(3,4,5-trifluorobenzyl)-1H-indazole], for which the IC50 was more than 1000 nM against TRKB; more than 1000 nM against TRKA; more than 10000 nM against BaF3-ETV6-NTRK3; more than 10000 nM against BaF3-ETV6-NTRK2; 2480 nM at BaF3-CD74-NTRK1; more than 1000 nM against TRKC.
Take `Fc1cccc(F)c1Cc1ccc2[nH]nc(/C=C/c3ccccn3)c2c1` [DYX-081, (E)-5-(2,6-difluorobenzyl)-3-(2-(pyridin-2-yl)vinyl)-1H-indazole]: the IC50 on TRKB was determined as 170 nM; against TRKA, 39.8 nM; at BaF3-ETV6-NTRK3, 820 nM; against BaF3-ETV6-NTRK2, 1020 nM; against BaF3-CD74-NTRK1, 1440 nM; against TRKC, 26.6 nM.
With `Fc1cccc(Cc2ccc3[nH]nc(/C=C/c4ccccn4)c3c2)c1F` [DYX-082, (E)-5-(2,3-difluorobenzyl)-3-(2-(pyridin-2-yl)vinyl)-1H-indazole], the IC50 was determined as 67.8 nM on TRKB; 15.2 nM against TRKA; 159 nM on BaF3-ETV6-NTRK3; 248 nM against BaF3-ETV6-NTRK2; 584 nM against BaF3-CD74-NTRK1; 8.5 nM at TRKC.
`Fc1cc(Cc2ccc3[nH]nc(/C=C/c4ccccn4)c3c2)cc(F)c1F` [DYX-083, (E)-3-(2-(pyridin-2-yl)vinyl)-5-(3,4,5-trifluorobenzyl)-1H-indazole]: the IC50 at TRKB was more than 1000 nM; on TRKA, 628 nM; at BaF3-ETV6-NTRK3 it was 3310 nM; at BaF3-ETV6-NTRK2 it was 3020 nM; against BaF3-CD74-NTRK1, 7500 nM; against TRKC, 191 nM.
With `Fc1cc(F)cc(Sc2ccc3[nH]nc(C#Cc4ccccn4)c3c2)c1` [DYX-086, 5-((3,5-difluorophenyl)thio)-3-(pyridin-2-ylethynyl)-1H-indazole], the IC50 on TRKB turned out to be 241 nM; at TRKA it was 54.2 nM; at BaF3-ETV6-NTRK3, 3710 nM; at BaF3-ETV6-NTRK2, 2600 nM; on BaF3-CD74-NTRK1 it was 3600 nM; against TRKC it was 111 nM.
For `Fc1cc(F)cc(Sc2ccc3[nH]nc(/C=C/c4ccccn4)c3c2)c1` [DYX-090, (E)-5-((3,5-difluorophenyl)thio)-3-(2-(pyridin-2-yl)vinyl)-1H-indazole], the IC50 on TRKB amounted to 79.9 nM; on TRKA it was 9.9 nM; against BaF3-ETV6-NTRK3 it was 158 nM; against BaF3-ETV6-NTRK2, 295 nM; against BaF3-CD74-NTRK1 it was 480 nM; against TRKC, 35.7 nM.
